Assays:
[1] = intraosseous infusion; cited from earlier work
stem cells = conditions: novel dual-lumen device with lidocaine infusion, without pressure modulation; live porcine model, N=4, control single-hole device
Procedure: The colony forming unit (CFU) assay is an accepted measure of relative stem cell concentrations in BMA. […] A preliminary (N=4) trial of BMA in a live porcine model was performed comparing a single-hole cancer aspiration device to the novel dual-lumen BMA method.

In the case of `CCN(CC)CC(=O)Nc1c(C)cccc1C` [lidocaine], the whole-bone anesthesia [1] is given as “effective in whole-bone anesthesia” and the “CFU/mL of aspirate versus control” value (stem cells) is given as “more than doubled”.
